These results are taken from PMC5803267, “A small molecule inhibitor of Rheb selectively targets mTORC1 signaling” (Nature Communications, 2018).

Common to all, as to assay type: cell-based, human
Experiment [1] concerns T389pS6K1 (mTORC1) in PC3 cells. The experiment can be described thus: Chronic treatment of PC3 cells, T389pS6K1 Western blot. On the procedure:
(§1) MCF-7 cells were serum-starved for 16 h and treated with compound for 90 min before cell lysis and Western blot analysis. For insulin-stimulated cells, 100 nM insulin was added 30 min before cell lysis. For EGF-stimulated cells, 100 ng mL^−1 EGF was added 10 min before cell lysis. c Rap1 activity was detected in lysates loaded in vitro with either GDP or GTPγS and treated with NR1 at the indicated concentrations. This was followed by a subsequent pulldown of GST-RalGDS-RBD. Bound Rap1 was detected by Western blot. d Evaluation of NR1 in a LAM patient-derived cell line (TRI102) under replete and serum-starved conditions. For replete conditions, TRI102 cells were treated for 90 min with compound in DMEM + 10% FBS. For serum-starved conditions, TRI102 cells were serum-starved 16 h and then treated for 90 min with compound prior to cell lysis and Western blot analysis. e HEK293 cells co-transfected with the indicated mTOR constructs and HA-GST-S6K1 were starved of amino acids or treated with NR1. To assess mTORC1 activity, an HA IP was performed and Western blots probed for ^T389pS6K1. f Chronic treatment of PC3 cells with NR1 to evaluate the inhibition of mTORC1 (using ^T389pS6K1) versus mTORC2 (using ^S473pAKT). PC3 cells were treated with compound under replete conditions for 24 h prior to cell lysis and Western blot analysis.
Accordingly, a hallmark of a selective mTORC1 inhibitor such as NR1 would be the lack of mTORC2 inhibition irrespective of the duration of treatment. PC3 cells are sensitive to mTORC2 inhibition with long-term rapamycin treatment. Indeed, upon treatment with rapamycin for 24 h, both ^T389pS6K1 and ^S473pAKT were lowered, indicating inhibitory effects on both mTORC1 and mTORC2, respectively.
For Western-based signaling assays, cells were treated for either 90 min or 2–24 h as indicated before lysis, normalization, and Western analysis. Cells were lysed in Triton lysis buffer: 1% Triton X-100, 50 mM HEPES pH 7.4, 100 mM NaCl, 2 mM EDTA, 10 mM β-glycerophosphate, 10 mM Na-pyrophosphate, protease inhibitor.
Background: A western blot detects proteins with antibodies after separation by electrophoresis.

Experiment [2] deals with T389pS6K1 (mTORC1 activity) in MCF-7 cells. The experiment in a line: T389pS6K1 AlphaLISA assay in MCF-7 cells. An excerpt: We next evaluated the activity of NR1 in cell culture. Selective inhibition of mTORC1 in cells produces a specific signaling signature characterized by a reduction in phosphorylation of the mTORC1 substrates S6K1 and 4E-BP1 and increase in phosphorylation of AKT, catalyzed by mTORC2. This distinctive profile reflects the relief of a feedback loop where active S6K1 directly phosphorylates IRS1, resulting in the degradation of IRS1 and subsequent reduction of growth factor signaling from RTKs to downstream effectors such as AKT[1]. Conversely, reduction in ^T389pS6K1 is expected to lead to an increase in ^S473pAKT levels. We used AlphaLISA assays to detect ^T389pS6K1 and ^S473pAKT in MCF-7 cells. […]
Evaluation of NR1 in MCF-7 under replete conditions. […] The indicated phosphoproteins were detected using AlphaLISA assays for T389pS6K1 (reflecting mTORC1 activity) and S473pAKT (reflecting mTORC2 activity). […]
The compounds were added to the kinase reaction mixture by Acoustic technology (Echo550; nanoliter range) and incubated for 20 min at room temperature before the addition of 100 µM 33P-ATP. The reaction was incubated for 2 h at room temperature, and kinase activity was detected by a P81 filter- […]
AlphaLISA assays. […] The AlphaLISA protocol was performed in 384-well plates as instructed by Perkin Elmer, and the plates were read on an EnVision plate reader. […]

Experiment [3] has as its system T389pS6K1 in HEK293 cells. The experiment in a line: T389pS6K1 in HEK293 cells transfected with WT or constitutively active mTOR mutants. Conditions: HEK293, 30 µM NR1 for 90 min. On the procedure:
as §1, with “To assess mTORC1 activity, an HA IP was performed and Western blots probed for ^T389pS6K1. f Chronic treatment of PC3 cells with NR1 to evaluate the inhibition of mTORC1 (using ^T389pS6K1) versus mTORC2 (using ^S473pAKT). PC3 cells were treated with compound under replete conditions for 24 h prior to cell lysis and Western blot analysis.” left out
To further support Rheb as the target of NR1, we assessed whether NR1 could inhibit ^T389pS6K1 in cells transfected with constitutively active, Rheb-independent double mutants of mTOR originally described by Xu et al.[48]. […]

Regarding `CN(C)C(=O)c1ccc(Cn2c(C(=O)O)cc3c(Br)cc(Sc4ccc(Cl)c(Cl)c4)cc32)cc1` [NR1, 4-bromo-6-(3,4-dichlorophenylthio)-1-(4-(dimethylcarbamoyl)benzyl)-1H-indole-2-carboxylic acid], in experiment [1] (PC3, replete, 24 h, NR1 30 µM, rapamycin 100 nM), the “T389pS6K1 after 24 h treatment” value is recorded as “potent inhibition”. The “pS6K1 over time course” value in experiment [1] (PC3, time points 2 h through 24 h) was “inhibits pS6K1”. In experiment [2] (Homo sapiens, MCF7, inhibition of S6K phosphorylation in cells, read-out: potency in cellular assays), the IC50 turned out to be 2000 nM. Besides, in experiment [2] (MCF-7, replete conditions, 120 min, dose-dependent), the “phosphorylation of T389pS6K1” value is reported as “inhibited the phosphorylation”. In experiment [3], the “T389pS6K1 phosphorylation with Rheb-independent mTOR mutants” value is “no impact on pS6K1” and the “T389pS6K1 phosphorylation with vehicle or WT mTOR” value was “reduces”.
